Peptide text beside a SMILES is read from it. * marks the point of attachment. Fmoc = O=C(OCC1c2ccccc2-c2ccccc21)*
Experiments:
[1] = test system: human adult dermal fibroblasts; experiment: 2D culture on surface of self-assembled peptide hydrogel, cell phenotype under inverted light microscope; type: cell-based; conditions: for appearance of fibroblasts on top of hydrogel: 10 mM/L gel
Procedure: An initial 2D culture of human adult dermal fibroblasts was carried out on the surface of 10 mM/L Fmoc-Phe-Phe-OH self-assembled peptide hydrogels and cell phenotype was investigated under inverted light microscope.
(§1) Generally, 0.0107 gram of Fmoc-Phe-Phe-OH was weighed in a glass vial and sterilized for 30 minutes by an ultraviolet light with bottles of distilled water, filtered NaOH (Sodium Hydroxide, 0.5 M/L), filtered HCl (Hydrochloric Acid, 0.5 M/L), and relevant apparatus (spatulas, pipettes, Vortex). 2 mL of the sterile distilled water was then added into the glass vial of Fmoc-Phe-Phe, and the mixture was vortexed for a few seconds to create a suspension. Afterwards, approximate 100 μL of NaOH was gradually pipetted into the suspension (20 μL each pipetting) and the mixture was vortexed after every addition of the alkaline. The whole mixture was shaken continually until a homogeneous transparent solution was obtained. The basic peptide solution (pH around 10) was finally neutralized to pH 7 by dropwise addition of HCl and pH values were monitored by a pH meter with a micro-probe.
The above peptide solutions of physiological pH were aliquoted into a 24 well-plate with 500 μL in each well and the well plate was maintained in a 37° C./5% CO2 incubator overnight. The solution underwent a self-assembling to become hydrogels. Human adult dermal fibroblasts in suspension were then poured on top of the self-assembled hydrogels with 1 mL cell suspension for each well. Cell suspensions of 8×10^4/mL were used with a serum-free DMEM (Dulbecco's modified Eagle's medium) supplemented by 1% antibiotics/antimicotics. […] These originally spreaded cells, however, became rounded with a diameter of around 10 microns between 24 and 72 hours. The phenomenon indicated of a dynamic solid (gel)-liquid (culture medium) interface which formed a malleable, unstable gel surface to wrap and sink cells into the interacted nano-filaments of the gel structure resulting the cells' rounding up.

[2] = test system: human adult dermal fibroblasts; experiment: LDH assay of cell viability (3D culture); type: cell-based
Procedure: In order to quantitatively test cell viability in the 3D culture, LDH assay was adopted which tested the amount of lactate dehydrogenase inside cell […] (reflecting cell numbers).
as §1, with “0.0107” for “Generally, 0.0107”, “Fmoc-Phe-Phe-OH,” for “Fmoc-Phe-Phe,”, “micro-probe. […]” for “micro-probe.”
The culture was maintained in a 37° C./5% CO2 incubator for a 10 day period and LDH assay was carried out after 1 hour, 1 day, 3 days, 7 days, and 10 days. […] Assay reagent was then added, the mixture was incubated, and light absorbance at 490 nm was then measured. Absorbance was converted to cell number according to a standard. […]

Structure (SMILES): O=C(N[C@@H](Cc1ccccc1)C(=O)N[C@@H](Cc1ccccc1)C(=O)O)OCC1c2ccccc2-c2ccccc21 [Entry 1, Fmoc-Phe-Phe-OH] (Fmoc-Phe-Phe-OH)
- appearance of fibroblasts on top of hydrogel ([1]; 4 hours, 2D culture): spreaded
- appearance of fibroblasts on top of hydrogel ([1]; 6 hours, 2D culture): spreaded
- appearance of fibroblasts on top of hydrogel ([1]; 24 hours, 2D culture): rounded
- diameter of rounded cells ([1]; between 24 and 72 hours, 2D culture): around 10 microns
- cell attachment and spreading ([1]; within the first 8 hours of culturing, 2D): cell attachment and spreading was observed
- cell number (LDH assay), initial course ([2]; 3D culture, 10 day period): initially a decreasing of cell numbers
- cell number increase (LDH assay) ([2]; from day 7 to day 10, 3D culture): 5 folds

Source: US8420605B2, “Hydrogel compositions” (The University of Strathclyde, priority 2005, dated 2013)
